The test system of one assay is dengue virus. The settings on record: for IC50: dengue virus incubated with peptide 37°C 1 hour, Vero cells, 2 days, triplicate.
The subject of the next assay is HCV. The note with it: Table 1 in Cheng, Guofeng, et al.; cited from earlier work.

These results are taken from patent EP4621409A1, “NOVEL ANTIVIRAL PEPTIDE” (Daehannupharm Co., Ltd., priority 2022, dated 2024).

Read-outs that look alike come from different tables or passages of the source. No end group written: not given here.

The IC50 is the concentration needed to halve the response being measured. A lower IC50 goes with inhibition by little substance. As a reminder, the % Inhibition is the relative decrease from the control value, in per cent.

Description for dengue virus: The inoculated cells were cultured overnight.
The SP-049 peptide was prepared such that the maximum concentration was 125 nM and the minimum concentration was 0.98 nM (concentrations: 125 nM; 62.5 nM; 31.25 nM; 15.62 nM; 7.81 nM; 3.91 nM; 1.95 nM; and 0.98 nM).
The present inventors calculated the inhibition rate (% inhibition) of each well based on the formula of the standard curve by converting the average Ct value of wells infected with dengue virus without peptide treatment in the same plate into an infection rate of 100%, and using this to create a standard curve. Each value was obtained through three repeated experiments (in triplicate), and IC50 values were derived using GraphPad Prism 5 software.

In turn, “DKIVLFILSILEKIYNLL [SP-171, DKIVLFILSILEKIYNLL]” yielded a 50% inhibitory concentration (IC50) with SARS-CoV-2 virus of 18.7 µM.
For the sequence “DFWSKLVYFFAEIIRFLS [SP-143, DFWSKLVYFFAEIIRFLS]”, the IC50 in the assay on SARS-CoV-2 virus is 19.5 µM; with dengue virus, 0.0161 µM. The “% Inhibition” value is 59.95% with dengue virus (Conc. 0.98 nM); -28.80% in the assay on dengue virus (Conc. 1.95 nM); 42.98% with dengue virus (Conc. 3.91 nM); 49.26% in the assay on dengue virus (Conc. 7.81 nM); 53.07% in the assay with dengue virus (Conc. 15.63 nM); 79.28% in the assay with dengue virus (Conc. 31.25 nM). Also, the entries for the “% Inhibition” value in the assay on dengue virus (Conc. 62.50 nM) and in the assay on dengue virus (Conc. 125.00 nM) were 94.07% and 99.42%, respectively.
Turning to “YNLFDLLIYIWNKIFDDY [SP-049, YNLFDLLIYIWNKIFDDY]”, the values for the IC50 in the assay on SARS-CoV-2 virus and in the assay on dengue virus were 1.8 µM and 0.00385 µM, respectively. For the same sequence, the “% Inhibition” value was found to be 24.20% with dengue virus (Conc. 0.49 nM); 20.16% in the assay with dengue virus (Conc. 0.98 nM); 39.14% in the assay with dengue virus (Conc. 1.95 nM); 45.30% in the assay on dengue virus (Conc. 3.91 nM); 93.03% in the assay on dengue virus (Conc. 7.81 nM); 100.00% with dengue virus (Conc. 15.63 nM). For the same sequence, the “% Inhibition” value with dengue virus (Conc. 31.25 nM) and in the assay on dengue virus (Conc. 62.50 nM) was 100.00% in each case.
Take “ESLKNFWESLWKFFTHFF [SP-001, ESLKNFWESLWKFFTHFF]”: the “% Inhibition” value in the assay on dengue virus (Conc. 7.81 nM) is listed as -0.47%; with dengue virus (Conc. 15.63 nM) it was 45.60%; in the assay on dengue virus (Conc. 31.25 nM), 57.96%; in the assay with dengue virus (Conc. 62.50 nM), 78.78%; in the assay with dengue virus (Conc. 125.00 nM) it was 82.51%; in the assay on dengue virus (Conc. 250.00 nM), 100.00%. Moreover, the “% Inhibition” value in the assay with dengue virus (Conc. 500.00 nM) and in the assay with dengue virus (Conc. 1000.00 nM) was 100.00% each time. In the assay with dengue virus, this sequence registered an IC50 of 0.0226 µM.
Consider “SWKEIVNLLYELLASLIR [SP-101, SWKEIVNLLYELLASLIR]”, for which the IC50 in the assay with SARS-CoV-2 virus was 11.6 µM; in the assay on dengue virus, 0.1 µM. In addition, the “% Inhibition” value is -14.11% in the assay on dengue virus (Conc. 7.81 nM); 20.94% in the assay with dengue virus (Conc. 15.63 nM); 0.96% in the assay with dengue virus (Conc. 31.25 nM); 23.20% in the assay with dengue virus (Conc. 62.50 nM); 65.09% in the assay on dengue virus (Conc. 125.00 nM); 97.07% with dengue virus (Conc. 250.00 nM). Also, the “% Inhibition” value in the assay on dengue virus (Conc. 500.00 nM) and in the assay on dengue virus (Conc. 1000.00 nM) was 100.00% throughout.
Regarding “QSFLDIVWSIIDIFKEFC [SP-004, QSFLDIVWSIIDIFKEFC]”, the 50% inhibitory concentration (IC50) in the assay with SARS-CoV-2 virus came out at 8.9 µM; in the assay on dengue virus it was 0.207 µM. Besides, the “% Inhibition” value in the assay with dengue virus (Conc. 7.81 nM) is recorded as -1.96%; in the assay with dengue virus (Conc. 15.63 nM), 6.56%; in the assay with dengue virus (Conc. 31.25 nM), 9.23%; with dengue virus (Conc. 62.50 nM), 22.45%; with dengue virus (Conc. 125.00 nM), 34.78%; with dengue virus (Conc. 250.00 nM), 61.21%. Moreover, the “% Inhibition” value in the assay with dengue virus (Conc. 500.00 nM) was found to be 99.95%; with dengue virus (Conc. 1000.00 nM), 100.00%.
Consider “FSFWVWLDNIIDLVKKYI [SP-114, FSFWVWLDNIIDLVKKYI]”, for which the IC50 in the assay on SARS-CoV-2 virus came to 19.5 µM.
Still for that read-out and setting: the figure for “WSEILREFLNLISLIWSR [SP-110, WSEILREFLNLISLIWSR]” is 19.5 µM.
As to “ILDFFVGFIDWLVRYLNK [SP-046, ILDFFVGFIDWLVRYLNK]”, the figures for the IC50 in the assay on SARS-CoV-2 virus and in the assay on dengue virus were 7.9 µM and 0.0177 µM, respectively. Also, the “% Inhibition” value in the assay on dengue virus (Conc. 0.98 nM) turned out to be 3.30%; with dengue virus (Conc. 1.95 nM) it was 3.30%; in the assay on dengue virus (Conc. 3.91 nM), 5.60%; in the assay on dengue virus (Conc. 7.81 nM), 15.33%; with dengue virus (Conc. 15.62 nM), 36.10%; in the assay on dengue virus (Conc. 31.25 nM), 100.00%. For the same sequence, the “% Inhibition” value with dengue virus (Conc. 62.50 nM) and in the assay on dengue virus (Conc. 125.00 nM) was 100.00% throughout.
As for “SFLDIVWSIIDIFKEFCK [SP-003, SFLDIVWSIIDIFKEFCK]”, the IC50 in the assay on SARS-CoV-2 virus is 10.3 µM; with dengue virus, 0.022 µM. Further, the “% Inhibition” value was -6.03% with dengue virus (Conc. 7.81 nM); 38.56% in the assay with dengue virus (Conc. 15.63 nM); 71.23% in the assay with dengue virus (Conc. 31.25 nM); 63.98% in the assay on dengue virus (Conc. 62.50 nM); 99.91% in the assay on dengue virus (Conc. 125.00 nM); 100.00% with dengue virus (Conc. 250.00 nM). In addition, the “% Inhibition” value in the assay with dengue virus (Conc. 500.00 nM) and in the assay on dengue virus (Conc. 1000.00 nM) was 100.00% throughout.
In the assay with SARS-CoV-2 virus, “ILVRWLSHFFEYLDRFYT [SP-221, ILVRWLSHFFEYLDRFYT]” displayed an IC50 of 19.5 µM.
The same measure, in the same setting: the figure for “FTFWTWLEAILDLIKKHI [SP-116, FTFWTWLEAILDLIKKHI]” is 4.1 µM; for “DVTRLLELILDVLAYIIS [SP-151, DVTRLLELILDVLAYIIS]” it is 5 µM.
DWLRIIWDWVCSVVSDFK [SEQ ID NO: 301]: the “antiviral activity compared among C5A analogs derived from HCV 1a, 1b, 2a, 3a, 4a, 5a and 6a” value with HCV is “higher antiviral activity”.
Regarding “WDCVQDIWEYIFRTAMKI [SP-185, WDCVQDIWEYIFRTAMKI]”, the “% Inhibition” value is listed as -7.43% in the assay on dengue virus (Conc. 39.06 nM); 11.76% in the assay with dengue virus (Conc. 78.13 nM); 36.60% in the assay with dengue virus (Conc. 156.25 nM); 33.04% with dengue virus (Conc. 312.50 nM); 51.77% with dengue virus (Conc. 625.00 nM); 89.53% in the assay with dengue virus (Conc. 1250.00 nM). The “% Inhibition” value in the assay with dengue virus (Conc. 2500.00 nM) and in the assay on dengue virus (Conc. 5000.00 nM) was 100.00% in each case. This sequence also yielded an IC50 with dengue virus of 0.519 µM.
On to “FTNFHRQLFCWIDKWIDL [SP-191, FTNFHRQLFCWIDKWIDL]”, for which the “% Inhibition” value in the assay with dengue virus (Conc. 39.06 nM) is reported as -20.14%; in the assay on dengue virus (Conc. 78.13 nM), -14.44%; in the assay on dengue virus (Conc. 156.25 nM), 5.32%; in the assay with dengue virus (Conc. 312.50 nM), 46.78%; with dengue virus (Conc. 625.00 nM), 29.53%; in the assay on dengue virus (Conc. 1250.00 nM), 64.10%. The entries for the “% Inhibition” value in the assay on dengue virus (Conc. 2500.00 nM) and in the assay on dengue virus (Conc. 5000.00 nM) were 98.50% and 99.99%, respectively. In addition, inhibition in the assay on dengue virus was half-maximal at 0.776 µM (IC50).
